Drawing on patent US12655185B2, “Peptide inhibitors of interleukin-23 and their use to treat inflammatory diseases” (Protagonist Therapeutics, Inc., priority 2016, dated 2026), this text covers IC50 for 7 molecules.

Each structure is given as a SMILES string. pIC50: −log10 of the molar value. Like-named read-outs stand apart in the source and are kept apart here. Bridge positions count the residues as written; N and C are the ends. Peptide text beside a SMILES is read from it.

This test has as its target T1, IL-23 binding to IL23R_huFC (human IL-23R) (Homo sapiens, UniProt P29460+Q9NPF7).
T1 sequence (Q9NPF7 20-189): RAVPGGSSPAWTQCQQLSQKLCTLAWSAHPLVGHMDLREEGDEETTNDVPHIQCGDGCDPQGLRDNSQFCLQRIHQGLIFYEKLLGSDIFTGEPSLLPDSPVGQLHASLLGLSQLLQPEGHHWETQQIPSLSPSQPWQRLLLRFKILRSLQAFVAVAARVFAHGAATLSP
T1 sequence (P29460 23-328): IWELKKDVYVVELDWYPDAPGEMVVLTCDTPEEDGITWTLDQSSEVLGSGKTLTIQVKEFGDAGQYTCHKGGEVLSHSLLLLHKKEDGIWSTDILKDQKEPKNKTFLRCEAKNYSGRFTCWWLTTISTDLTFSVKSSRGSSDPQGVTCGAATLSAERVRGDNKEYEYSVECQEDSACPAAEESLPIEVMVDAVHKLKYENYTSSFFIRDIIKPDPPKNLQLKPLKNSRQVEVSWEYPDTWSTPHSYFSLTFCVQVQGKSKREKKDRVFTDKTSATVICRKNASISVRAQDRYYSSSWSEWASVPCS
As to the kind of experiment: IL23-IL23R Competitive Binding ELISA. As to the method: Immulon® 4HBX plate was coated with 200 ng/well of IL23R_huFC and incubated overnight at 4° C. […] Serial dilutions of test peptides and IL-23 at a final concentration of 0.9 nM diluted in PBS were added to each well and incubated for 2 hours at room temperature. After the wells were washed, bound IL-23 was detected by incubation with 50 ng/well of goat anti-p40 polyclonal antibodies (R&D Systems #AF309) diluted in PBS for 1 hour at room temperature. The wells were again washed four times with PBST. […] The plate was finally washed as above. Signals were visualized with TMB One Component HRP Membrane Substrate, quenched with 2 M sulfuric acid and read spectrophotometrically at 450 nm.

Setting [1] is: inhibition of IL-23/IL-23R binding, IL-23 0.9 nM, class symbols, read-out: IC50 IL23R_huFC.

As for `CC[C@H](C)[C@@H]1NC(=O)[C@H](CCCNC(=N)N)NC(=O)[C@H](C)NC(=O)[C@H](CC(N)=O)NC(=O)[C@H](CCCNC(=N)N)NC(=O)[C@H](CC(=O)O)NC(=O)[C@H](CCC(=O)O)NC(=O)[C@H](CCC(=O)O)NC(=O)[C@H](CC(N)=O)NC(=O)[C@H](CC(C)C)NC(=O)[C@H](CC(N)=O)NC(=O)[C@@H]2CCCN2C(=O)[C@H](CC(N)=O)NC(=O)[C@H](C)NC(=O)[C@H](C)NC(=O)[C@H](C)NC(=O)[C@H](Cc2c[nH]c3ccccc23)NC(=O)[C@H](Cc2ccc(O)cc2)NC(=O)[C@H](Cc2ccccc2)NC(=O)[C@H](CC(C)C)NC(=O)[C@H](CCCNC(=N)N)NC(=O)[C@H](CCC(N)=O)NC(=O)[C@@H](NC(=O)[C@H](Cc2ccccc2)NC(=O)[C@H](CCSC)NC(=O)[C@H](CC(N)=O)NC(=O)[C@H](Cc2ccccc2)NC(C)=O)CSSC[C@@H](C(N)=O)NC(=O)CNC(=O)[C@H](CC(=O)O)NC(=O)[C@H](CCCNC(=N)N)NC(=O)[C@H](Cc2ccccc2)NC(=O)[C@H](CO)NC(=O)[C@H](CC(C)C)NC1=O` [Peptide 3] (Ac-FNMFCQRLFYWAAANPNLNEEDRNARILSFRDGC-NH2; disulfide 5-34), the pIC50 under setting [1] is 4.00 to 5.00.

For the molecule `CC[C@H](C)[C@@H]1NC(=O)CNC(=O)[C@H](C)NC(=O)[C@H](CCC(=O)O)NC(=O)[C@H](C(C)C)NC(=O)[C@H](CCSC)NC(=O)[C@H](CCCNC(=N)N)NC(=O)[C@H](CCCNC(=N)N)NC(=O)[C@H](CC(C)C)NC(=O)[C@@H](NC(=O)[C@H](CCC(N)=O)NC(=O)[C@H](CCSC)NC(=O)[C@H](CC(N)=O)NC(=O)[C@H](Cc2ccccc2)NC(C)=O)CSSC[C@@H](C(N)=O)NC(=O)[C@H](CC(=O)O)NC(=O)[C@H](CC(=O)O)NC(=O)[C@H](Cc2ccccc2)NC(=O)[C@H]([C@@H](C)CC)NC(=O)[C@H](CO)NC(=O)[C@H](CCCNC(=N)N)NC(=O)[C@H]([C@@H](C)CC)NC(=O)[C@H](CCCCN)NC(=O)[C@H](C)NC(=O)[C@H](Cc2c[nH]c3ccccc23)NC(=O)[C@H](CCCNC(=N)N)NC(=O)[C@H](CCC(N)=O)NC(=O)CNC(=O)[C@H](CO)NC(=O)[C@H](CC(N)=O)NC(=O)[C@H](CC(C)C)NC(=O)[C@H](CC(N)=O)NC(=O)[C@@H]2CCCN2C(=O)[C@H](CC(=O)O)NC1=O` [Peptide 8] (Ac-FNMQCLRRMVEAGIDPNLNSGQRWAKIRSIFDDC-NH2; disulfide 5-34), under setting [1], the negative logarithm of the IC50 (pIC50) was 4.00 to 5.00.

`CC[C@H](C)[C@@H]1NC(=O)[C@H](CCCCN)NC(=O)[C@H](C)NC(=O)[C@H](CC(N)=O)NC(=O)[C@H](CCCNC(=N)N)NC(=O)[C@H](CCC(N)=O)NC(=O)[C@H](CCC(=O)O)NC(=O)[C@H](CCC(=O)O)NC(=O)[C@H](CC(N)=O)NC(=O)[C@H](CC(C)C)NC(=O)[C@H](CC(N)=O)NC(=O)[C@@H]2CCCN2C(=O)[C@H](CC(=O)O)NC(=O)[C@H](C)NC(=O)[C@H](C)NC(=O)[C@H](C)NC(=O)[C@H](CO)NC(=O)[C@H](Cc2ccc(O)cc2)NC(=O)[C@H](Cc2ccccc2)NC(=O)[C@H](C)NC(=O)[C@H](CC(C)C)NC(=O)[C@H](CCC(N)=O)NC(=O)[C@@H](NC(=O)[C@H](Cc2ccccc2)NC(=O)[C@H](CCSC)NC(=O)[C@H](CC(N)=O)NC(=O)[C@H](Cc2ccccc2)NC(C)=O)CSSC[C@@H](C(N)=O)NC(=O)[C@H](CC(C)C)NC(=O)[C@H](CC(=O)O)NC(=O)[C@H](CCCNC(=N)N)NC(=O)[C@H](Cc2ccccc2)NC(=O)[C@H](CO)NC(=O)[C@H](CCCCN)NC1=O` [Peptide 9] (Ac-FNMFCQLAFYSAAADPNLNEEQRNAKIKSFRDLC-NH2; disulfide 5-34) showed a pIC50 of 4.00 to 5.00.

As for `CC[C@H](C)[C@@H]1NC(=O)[C@H](CCCCN)NC(=O)[C@H](C)NC(=O)[C@H](Cc2c[nH]c3ccccc23)NC(=O)[C@H](CCCNC(=N)N)NC(=O)[C@H](CCC(N)=O)NC(=O)[C@H](CCC(=O)O)NC(=O)[C@H](CCC(N)=O)NC(=O)[C@H](CC(N)=O)NC(=O)[C@H](CC(C)C)NC(=O)[C@H](CC(N)=O)NC(=O)[C@@H]2CCCN2C(=O)[C@H](CC(=O)O)NC(=O)[C@H](C(C)C)NC(=O)CNC(=O)[C@H](C)NC(=O)[C@H](CCC(=O)O)NC(=O)[C@H](CO)NC(=O)[C@H](C)NC(=O)[C@H](CCCNC(=N)N)NC(=O)[C@H](CCCNC(=N)N)NC(=O)[C@H](CC(C)C)NC(=O)[C@@H](NC(=O)[C@H](CCC(N)=O)NC(=O)[C@H](CCSC)NC(=O)[C@H](CC(N)=O)NC(=O)[C@H](Cc2ccccc2)NC(C)=O)CSSC[C@@H](C(N)=O)NC(=O)[C@H](CC(=O)O)NC(=O)[C@H](CC(=O)O)NC(=O)[C@H](CCSC)NC(=O)[C@H]([C@@H](C)CC)NC(=O)[C@H](CO)NC(=O)[C@H](CCCCN)NC1=O` [Peptide 12] (Ac-FNMQCLRRASEAGVDPNLNQEQRWAKIKSIMDDC-NH2; disulfide 5-34), the negative-log IC50 (pIC50) under setting [1] was 5.00 to 6.00.

As to `CC[C@H](C)[C@@H]1NC(=O)[C@H](CCCCN)NC(=O)[C@H](C)NC(=O)[C@H](Cc2c[nH]c3ccccc23)NC(=O)[C@H](CCCNC(=N)N)NC(=O)[C@H](CCC(N)=O)NC(=O)[C@H](CCC(=O)O)NC(=O)[C@H](CCC(N)=O)NC(=O)[C@H](CC(N)=O)NC(=O)[C@H](CC(C)C)NC(=O)[C@H](CC(N)=O)NC(=O)[C@@H]2CCCN2C(=O)[C@H](CC(=O)O)NC(=O)[C@H](C(C)C)NC(=O)CNC(=O)[C@H](C)NC(=O)[C@H](CCC(=O)O)NC(=O)[C@H](C)NC(=O)[C@H](CCSC)NC(=O)[C@H](CCCNC(=N)N)NC(=O)[C@H](CCCNC(=N)N)NC(=O)[C@H](CC(C)C)NC(=O)[C@@H](NC(=O)[C@H](CCC(N)=O)NC(=O)[C@H](CCSC)NC(=O)[C@H](CC(N)=O)NC(=O)[C@H](Cc2ccccc2)NC(C)=O)CSSC[C@@H](C(N)=O)NC(=O)[C@H](CC(=O)O)NC(=O)[C@H](CC(=O)O)NC(=O)[C@H](CCSC)NC(=O)[C@H]([C@@H](C)CC)NC(=O)[C@H](CO)NC(=O)[C@H](CCCCN)NC1=O` [Peptide 13] (Ac-FNMQCLRRMAEAGVDPNLNQEQRWAKIKSIMDDC-NH2; disulfide 5-34), under setting [1], the pIC50 was over 6.00.

Take `CC[C@H](C)[C@@H]1NC(=O)[C@H](CCCCN)NC(=O)[C@H](C)NC(=O)[C@H](Cc2c[nH]c3ccccc23)NC(=O)[C@H](CCCNC(=N)N)NC(=O)[C@H](CCC(N)=O)NC(=O)[C@H](CCC(=O)O)NC(=O)[C@H](CCC(N)=O)NC(=O)[C@H](CC(N)=O)NC(=O)[C@H](CC(C)C)NC(=O)[C@H](CC(N)=O)NC(=O)[C@H](C)NC(=O)[C@H](CC(=O)O)NC(=O)[C@H](C(C)C)NC(=O)CNC(=O)[C@H](C)NC(=O)[C@H](CCC(=O)O)NC(=O)[C@H](CO)NC(=O)[C@H](CCSC)NC(=O)[C@H](CCCNC(=N)N)NC(=O)[C@H](CCCNC(=N)N)NC(=O)[C@H](CC(C)C)NC(=O)[C@@H](NC(=O)[C@H](CCC(N)=O)NC(=O)[C@H](CCSC)NC(=O)[C@H](CC(N)=O)NC(=O)[C@H](Cc2ccccc2)NC(C)=O)CSSC[C@@H](C(N)=O)NC(=O)[C@H](CC(=O)O)NC(=O)[C@H](CC(=O)O)NC(=O)[C@H](CCSC)NC(=O)[C@H]([C@@H](C)CC)NC(=O)[C@H](CO)NC(=O)[C@H](CCCCN)NC1=O` [Peptide 16] (Ac-FNMQCLRRMSEAGVDANLNQEQRWAKIKSIMDDC-NH2; disulfide 5-34): the negative logarithm of the IC50 (pIC50) under setting [1] is 5.00 to 6.00.

For the molecule `CC[C@H](C)[C@@H]1NC(=O)[C@H](CCCCN)NC(=O)[C@H](C)NC(=O)[C@H](Cc2c[nH]c3ccccc23)NC(=O)[C@H](CCCNC(=N)N)NC(=O)[C@H](CCC(N)=O)NC(=O)[C@H](CCC(=O)O)NC(=O)[C@H](CCC(N)=O)NC(=O)[C@H](C)NC(=O)[C@H](CC(C)C)NC(=O)[C@H](CC(N)=O)NC(=O)[C@@H]2CCCN2C(=O)[C@H](CC(=O)O)NC(=O)[C@H](C(C)C)NC(=O)CNC(=O)[C@H](C)NC(=O)[C@H](CCC(=O)O)NC(=O)[C@H](CO)NC(=O)[C@H](CCSC)NC(=O)[C@H](CCCNC(=N)N)NC(=O)[C@H](CCCNC(=N)N)NC(=O)[C@H](CC(C)C)NC(=O)[C@@H](NC(=O)[C@H](CCC(N)=O)NC(=O)[C@H](CCSC)NC(=O)[C@H](CC(N)=O)NC(=O)[C@H](Cc2ccccc2)NC(C)=O)CSSC[C@@H](C(N)=O)NC(=O)[C@H](CC(=O)O)NC(=O)[C@H](CC(=O)O)NC(=O)[C@H](CCSC)NC(=O)[C@H]([C@@H](C)CC)NC(=O)[C@H](CO)NC(=O)[C@H](CCCCN)NC1=O` [Peptide 17] (Ac-FNMQCLRRMSEAGVDPNLAQEQRWAKIKSIMDDC-NH2; disulfide 5-34), the pIC50 under setting [1] is 5.00 to 6.00.
